Assay results as given in US12527773B2, “Flavi-block: a pan-flavivirus inhibitor” (Baden-Württemberg Stiftung GmbH, priority 2020, dated 2026).
Read-outs that look alike come from different tables or passages of the source.

Legend:
HCV-JC1-Luc = test: Validation of antiviral effects of 20 hits: release of infectious HCV-JC1-Luc particles from Huh7.5 cells; format: cell-based, Hepatitis C virus; settings: 10 μM, among the best 20 candidates
Description: Huh7.5 cells were electroporated with HCV-JC1-Luc (reporter virus expressing luciferase via IRES) RNA and treated 24 h later with the best 20 candidates (10 μM). After another 24 h the supernatants were harvested. To quantify infectious particles, untreated Huh7.5 cells were inoculated with the supernatants and 36 h later the luciferase activity was measured. The viability of the same cells was determined 24 h after treatment with inhibitor by MTT assay (tetrazolium salt which is reduced in metabolically active cells resulting in a color change). For both parameters, 100% corresponds to the release or viability of the untreated or DMSO treated control. uninf.=not infected; untr.=not treated. Mean values and SD were derived from n =3 independent infections.
Huh7.5 hepatocellular carcinoma cells were electroporated with HCV-JC1-Luc (reporter virus expressing luciferase via IRES) RNA and treated 24 h later with the best 20 candidates (10 μM) identified in Example 1. After another 24 h, the supernatants were harvested. To quantify infectious particles, untreated Huh7.5 cells were inoculated with the supernatants and luciferase activity was measured 36 h later (FIG. 2).

DENV-2 = test: Antiviral effect on DENV (virus release and entry), Vero cells, MOI 5; format: cell-based, Dengue virus; settings: co-treatment
Description: (A) Vero cells were seeded and infected with DENV-2 at a multiplicity of infection (MOI) of 5. For co-treatment cells were incubated with a premixed suspension of drug and virus, for post-treatment with virus only for 2 h. Cells were subsequently washed with PBS and cultivated for co-treatment in DMEM supplemented with 2% FCS, for post-treatment in DMEM supplemented with 2% FCS spiked with the indicated concentrations of C10. The drug containing medium for post-treated cells was removed after 2 h and replenished with fresh DMEM supplemented with 2% FCS. 24 h after infection the supernatants were used for a Plaque assay. (B) RNA extraction; n=3 with SEM. (C, D) Cells were lysed for Western blot analysis using antibodies against viral proteins NS3 and NS5 and tubulin as a loading control.
For this purpose, Vero cells were plated and infected with DENV-2 at an infection multiplicity (MOI) of 5. For co-treatment, the cells were incubated with a previously mixed suspension of active substance and virus, for post-treatment with the virus alone, each for 2 h. The cells were then washed with PBS and cultivated for co-treatment in DMEM with 2 % FCS, for post-treatment in DMEM with 2 % FCS mixed with the indicated concentrations of compound C10. For the post-treated cells, the medium containing the active substance was removed after 2 h and replaced by fresh medium with 2 % FCS. […]

DEN1/2 = test: IC50 in established virological assays (Table 1), DEN1/2; format: cell-based; settings: Dengue virus
Excerpt: In summary, a set of C10 derivatives (FIG. 12) was designed, synthesized and tested against HCV (which is considered as an established system to monitor drug effects against Flaviviridae) as well as DENV for comprehensive structure-activity relationship (SAR) analysis and target validation.

DENV2 = test: Plaque assay of released virus, DENV2-infected Vero cells; format: cell-based; settings: Dengue virus
Description: (§1) Vero cells were infected with DENV1-4 at an MOI of 1 for 2 h (post infection, p.i., (A)), after which virus was removed, and fresh maintenance medium containing 2% FCS together with the indicated concentration of C10 added. For co-treat condition (c.t., (B)), Vero cells were infected with DENV1-4 at an MOI of 1 in the presence of C10 for 2 h, followed by removal of the virus/C10 inoculums, and addition of fresh 2% fetal calf serum maintenance medium. […] Results represent the mean ±SD for duplicate wells from a single assay, representative of 2 independent experiments (cf. Tables 2A and 2B, infra, for pooled data).
(§2) Vero and BHK-21 cells were maintained in DMEM media supplemented with 10% heat-inactivated FBS at 37° C. in a humidified incubator supplemented with 5% CO2; A549 cells were maintained in F-12K medium supplemented with 10% heat-inactivated Fetal Bovine Serum (FBS), 2 mM L-glutamine, 50 U/I penicillin, 0.05 mg/l streptomycin. […] Viral titer was subsequently determined by plaque assay (see below).
(§3) Vero cells were seeded into 24-well plates at a density of 2×10^5 cells/well and grown overnight in culture medium at 37° C. with 5% CO2 prior to infection with RSV, KUNV, ZIKV as indicated. […] The stain was removed by rinsing the cells with tap water, and the viral plaques were counted visually. […]

DENV4 = test: Plaque assay of released virus, DENV4-infected Vero cells; format: cell-based; settings: Dengue virus
Description: as §1, §2, §3

DENV capsid protein = target: T1, DENV capsid protein (Dengue virus type 2, UniProt P29990); test: Crosslinking of recombinant DENV capsid protein (Western blot); format: biochemical
T1 construct: recombinant DENV capsid protein; made in house; host or cells: E. coli
Excerpt: DSS was included as a positive control.

HCV = test: Antiviral effect on HCV (virus release), Jc1-Luc-IRES in Huh7.5 cells

T1 sequence (P29990 1-100): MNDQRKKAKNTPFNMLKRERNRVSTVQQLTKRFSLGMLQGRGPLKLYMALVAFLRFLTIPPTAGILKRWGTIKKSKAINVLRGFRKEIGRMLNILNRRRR

For `CCN1/C(=C\C=C\c2sc3cc(NC(C)=O)ccc3[n+]2CC)Sc2cc(NC(C)=O)ccc21.[I-]` [C10, 6-acetamido-2-((1E,3E)-3-(6-acetamido-3-ethylbenzo[d]thiazol-2(3H)-ylidene)prop-1-en-1-yl)-3-ethylbenzo[d]thiazol-3-ium iodide], which “antiviral activity (release of infectious particles)” value (HCV-JC1-Luc) is on record?
Its value is “highest antiviral activity”.

What about the “viral proteins in cells (Western blot NS3, NS5)” value (DENV-2; 1 μM, compared to DMSO) of the same compound?
The value was “viral proteins are detectable in the cells, albeit at lower amounts”.

What about the “productive infection (Western blot NS3, NS5)” value (DENV-2; 10 μM) of the same compound?
The value was “prevents a productive infection of the cells”.

And the IC50 (DEN1/2)?
Its IC50 is 110 to 180 nM.

What about the EC50 (DENV2; read-out: EC50 from plaque assays, DENV2, c.t.) of the same compound?
Its EC50 is 40 nM.

And the EC50 (DENV2; read-out: EC50 from plaque assays, DENV2, p.i.)?
The EC50 was 1300 nM.

And the EC50 (DENV4; read-out: EC50 from plaque assays, DENV4, c.t.)?
The EC50 was 50 nM.

And the EC50 (DENV4; read-out: EC50 from plaque assays, DENV4, p.i.)?
The EC50 was 790 nM.

What about the “effect on oligomerization state of DENV capsid protein” value (DENV capsid protein) of the same compound?
The value was “enhance the presence of dimers, tetramers and higher oligomeric states”.

What about the “antiviral effect on release of infectious HCV” value (HCV; 24 h treatment) of the same compound?
Its value is “antiviral effects even at low concentrations”.

And the “therapeutic index CC50/EC50” value (HCV; HCV virus release, Huh7.5)?
The value was “approximately 590”.
